Patent US20100063085A1, “METHOD OF TREATING LEARNING IMPAIRMENT IN DOWN'S SYNDROME SUBJECTS” (University Court of The University of Dundee, priority 2008, published 2010)
Like-named read-outs stand apart in the source and are kept apart here.

Molecular target: T1, PKD1 (Homo sapiens, UniProt Q15139)
T1 sequence (Q15139 1-912): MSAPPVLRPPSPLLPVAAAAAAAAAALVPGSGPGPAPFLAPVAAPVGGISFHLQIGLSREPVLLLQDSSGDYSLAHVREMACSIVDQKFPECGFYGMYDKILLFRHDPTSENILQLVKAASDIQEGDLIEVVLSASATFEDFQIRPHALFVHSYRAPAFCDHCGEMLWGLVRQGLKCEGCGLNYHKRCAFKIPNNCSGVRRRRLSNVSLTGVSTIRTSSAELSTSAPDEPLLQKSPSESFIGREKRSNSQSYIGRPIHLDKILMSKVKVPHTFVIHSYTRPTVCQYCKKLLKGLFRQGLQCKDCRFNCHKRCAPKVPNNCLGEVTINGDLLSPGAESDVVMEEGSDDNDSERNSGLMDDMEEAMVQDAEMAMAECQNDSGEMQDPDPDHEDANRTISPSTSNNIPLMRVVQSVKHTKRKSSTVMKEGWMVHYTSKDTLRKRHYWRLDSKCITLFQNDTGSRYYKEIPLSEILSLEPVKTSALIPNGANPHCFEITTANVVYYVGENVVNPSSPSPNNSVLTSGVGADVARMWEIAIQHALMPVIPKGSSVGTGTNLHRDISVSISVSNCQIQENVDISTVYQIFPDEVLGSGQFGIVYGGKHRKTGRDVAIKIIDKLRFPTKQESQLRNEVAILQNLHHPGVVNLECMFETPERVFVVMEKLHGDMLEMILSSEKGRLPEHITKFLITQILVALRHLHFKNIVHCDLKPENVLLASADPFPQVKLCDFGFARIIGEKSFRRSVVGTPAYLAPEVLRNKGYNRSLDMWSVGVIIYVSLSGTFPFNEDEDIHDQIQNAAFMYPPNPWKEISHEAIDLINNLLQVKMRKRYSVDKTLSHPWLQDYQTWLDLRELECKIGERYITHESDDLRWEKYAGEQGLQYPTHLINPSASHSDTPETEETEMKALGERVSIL
Experiment: PKD1 33P kinase assay
Type: biochemical
Settings: read-out: PKD1 activity as percentage of control without inhibitor
Experimental: All assays (25.5 μl) were carried out at room temperature (21° C.) and were linear with respect to time and enzyme concentrations under the conditions used. Assays were performed for 30 minutes except assays for LCK and PKB which were performed for 15 minutes using Multidrop Micro reagent dispensers (Thermo Electron Corporation, Waltham, Mass. 02454, USA) in a 96-well format. The concentration of […] [γ-^33P] ATP (800 cpm/pmol) in the assays was one of three concentrations (5, 20 or 50 μM) in order to be at or below Km for ATP for the enzyme. Assays were initiated with MgATP and stopped by addition of 5 μl of 0.5M orthophosphoric acid. Assays were then harvested onto P81 filterplates using a unifilter harvester (PerkinElmer, Boston, Mass. 02118, USA), with a wash buffer of 50 mM orthophosphoric acid. Filterplates were then air dried overnight. 10 μl of Microscint O was added per well prior to counting for radioactivity.
The following kinases were assayed against the substrates indicated. Aurora B was assayed against the substrate peptide […] (300 μM), ERK8 and MST-2 were both assayed against MBP (0.33 mg/ml). IKKβ was assayed against the substrate peptide […] (300 μM), JNK3 was assayed against 3 μM ATF2[19-96]. MAPKAP-K3 and PKD1 were both assayed against […] (30 μM), MARK3 was assayed against CHKtide ([…]) substrate peptide (300 μM). MNK1 and MNK2 were both assayed against eIF4E protein (0.5 mg/ml). NEK7 was assayed against […] (300 μM), PIM2 was assayed against […] (300 μM), ΔPH PKBβ-S474D was assayed against Crosstide (30 μM), PLK1 was assayed against […] (300 μM). PRK2 was assayed against Long S6 peptide, […] (30 μM), RSK2 was assayed against […] (30 μM), SRC was assayed against cdc2 peptide, […], (300 μM) and SRPK1 was assayed against peptide […] (300 μM). All enzymes were diluted in 50 mM Tris/HCl pH 7.5, 0.1 mM EGTA, 1 mg/ml BSA, 0.1% β-mercaptoethanol buffer and assayed in an incubation containing 50 mM Tris/HCl pH7.5, 0.1 mM EGTA, 0.1% β-mercaptoethanol, CAMK-1 (5-20 mU) diluted in 50 mM Tris/HCl pH 7.5, 0.1 mM EGTA, 1 mg/ml BSA, 0.1% β-mercaptoethanol is assayed against substrate peptide […] in an incubation containing 50 mM Tris/HCl pH 7.5, 0.1 mM EGTA, 0.5 mM CaCl2, 0.3 μM calmodulin, 0.1% β-mereaptoethanol, 300 μM substrate peptide, 10 mM magnesium acetate and 0.05 mM [^33P-γ-ATP] (500-1000 cpm/pmole). EF2K (5-20 mU) diluted in 50 mM Hepes pH 6.6, 0.1% β-mercaptoethanol, 1 mg/ml BSA is assayed against a substrate peptide […] in an incubation containing 50 mM Hepes pH 6.6, 0.2 mM CaCl2, 0.3 μM Calmodulin, 0.05% b-mercaptoethanol, 300 μM substrate peptide, 10 mM magnesium acetate and 0.05 mM [^33P-γ-ATP] (500-1000 cpm/pmole).

Structure (SMILES) | remaining activity at 1 µM (inhibitor 1 μM) | remaining activity at 10 µM (inhibitor 10 μM) | remaining activity at 1 µM | remaining activity at 10 µM
COc1ccc2c3c([nH]c2c1)C(C)=NCC3 [Harmaline] | 99% | 101% | – | –
CC1=NCCc2c1[nH]c1cc(O)ccc21 [Harmalol] | 75% | 21% | – | –
COc1ccc2c(c1)[nH]c1c(C)nccc12 [Harmine] | – | – | 86% | 53%
